Data on one substance can be found in patent US9249108B2, “Multicomponent system of rosuvastatin calcium salt and sorbitol” (BASF SE, priority 2010, dated 2016).

A short description of data set [1]: Water uptake under humidity. The format is physicochemical.
The format of data set [2] is physicochemical. How it is done:
Aqueous Solubility Determination: Approximately 0.5 mL of doubly distilled water is added to 16 to 39 mg of the substance to be measured. The resulting suspension is equilibrated in a temperature-controlled Eppendorf Thermomixer Comfort shaker for 2 h and 24 h at 25° C. at a shaking rate of 600 rpm. After 24 h the solid phase is recovered by filter centrifugation (0.10-μm PVDF membrane) and examined by XRPD. Concentrations in the filtrate after 2 h and 24 h (i.e., saturated solutions) are determined using HPLC. The pH of the saturated solution is determined with a Metrohm 713 pH meter.

Take “Rosuvastatin hemicalcium salt/crystal form D (1:1 co-crystal with D-sorbitol)”: in data set [1], the “water uptake under humidity” value is recorded as “less prone to water uptake under humidity”. Besides, the solubility entry in data set [2] is “as good as solid forms of Rosuvastatin calcium previously known”.
